Assays:
Assay in all cases: Test D pre-/postemergence plant response
Assay type in all cases: in vivo
[1] = tested on: Italian ryegrass (Lolium multiflorum); details: Lolium multiflorum, pre-emergence, Preemergence
Method in brief: (§1)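 Plants are held in a greenhouse 13 to 15 days after spraying, then injury is rated by eye relative to controls on a 0 to 100 scale. Treatments are preemergence on freshly sown loam/sand pots or postemergence at 1- to 4-leaf stage in peat-based medium; surfactant-containing solvent formulation.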

[2] = tested on: johnsongrass (Sorghum halepense); details: Sorghum halepense, pre-emergence, Preemergence
Method in brief: as §1

[3] = tested on: yellow nutsedge (Cyperus esculentus); details: Cyperus, pre-emergence, Preemergence
Method in brief: as §1

[4] = tested on: lambsquarters (Chenopodium album); details: Chenopodium album, pre-emergence, Preemergence
Method in brief: as §1

[5] = tested on: waterhemp (common waterhemp, Amaranthus rudis); details: Amaranthus tuberculatus, pre-emergence, Preemergence
Method in brief: as §1

[6] = tested on: morningglory (Ipomoea coccinea); details: Ipomoea, pre-emergence, Preemergence
Method in brief: as §1

[7] = tested on: large (Lg) crabgrass (Digitaria sanguinalis); details: Digitaria sanguinalis, pre-emergence, Preemergence
Method in brief: as §1

[8] = tested on: winter wheat (Triticum aestivum); details: Triticum aestivum, pre-emergence, Preemergence
Method in brief: as §1

[9] = tested on: ragweed (common ragweed, Ambrosia elatior); details: Ambrosia artemisiifolia, pre-emergence, Preemergence
Method in brief: as §1

`N#Cc1cccc(Oc2ncc(Cl)cn2)c1-c1cc(C(F)(F)F)ccn1` [Compound 158, 5-chloro-2-[3-cyano-2-[4-(trifluoromethyl)-2-pyridinyl]phenoxy]pyrimidine] showed a pest or weed control at 125 g/ha ([1]; 125 g ai/ha, read-out: Plant response rating (scale 0 to 100), Ryegrass, Italian) of 20%, a pest or weed control at 16 g/ha ([1]; 16 g ai/ha, scale 0 to 100 (0 no effect, 100 complete control), read-out: Plant response rating, Ryegrass, Italian) of 0% and a pest or weed control at 31 g/ha ([1]; 31 g ai/ha, scale 0 to 100 (0 no effect, 100 complete control), read-out: Plant response rating, Ryegrass, Italian) of 0%. For the same compound, the pest or weed control at 62 g/ha ([1]; 62 g ai/ha, scale 0 to 100 (0 no effect, 100 complete control), read-out: Plant response rating, Ryegrass, Italian) was 0%, the pest or weed control at 125 g/ha ([2]; 125 g ai/ha, read-out: Plant response rating (scale 0 to 100), Johnsongrass) was 40% and the pest or weed control at 16 g/ha ([2]; 16 g ai/ha, scale 0 to 100 (0 no effect, 100 complete control), read-out: Plant response rating, Johnsongrass) was 0%. The pest or weed control at 31 g/ha ([2]; 31 g ai/ha, scale 0 to 100 (0 no effect, 100 complete control), read-out: Plant response rating, Johnsongrass) was 0%, the pest or weed control at 62 g/ha ([2]; 62 g ai/ha, scale 0 to 100 (0 no effect, 100 complete control), read-out: Plant response rating, Johnsongrass) was 10% and the pest or weed control at 125 g/ha ([3]; 125 g ai/ha, read-out: Plant response rating (scale 0 to 100), Nutsedge, Yellow) was 5%. It also gave a pest or weed control at 16 g/ha ([3]; 16 g ai/ha, scale 0 to 100 (0 no effect, 100 complete control), read-out: Plant response rating, Nutsedge, Yellow) of 0%, a pest or weed control at 31 g/ha ([3]; 31 g ai/ha, scale 0 to 100 (0 no effect, 100 complete control), read-out: Plant response rating, Nutsedge, Yellow) of 0% and a pest or weed control at 62 g/ha ([3]; 62 g ai/ha, scale 0 to 100 (0 no effect, 100 complete control), read-out: Plant response rating, Nutsedge, Yellow) of 5%. For the same compound, the pest or weed control at 125 g/ha ([4]; 125 g ai/ha, read-out: Plant response rating (scale 0 to 100), Lambsquarters) was 80%, the pest or weed control at 16 g/ha ([4]; 16 g ai/ha, scale 0 to 100 (0 no effect, 100 complete control), read-out: Plant response rating, Lambsquarters) was 75% and the pest or weed control at 31 g/ha ([4]; 31 g ai/ha, scale 0 to 100 (0 no effect, 100 complete control), read-out: Plant response rating, Lambsquarters) was 100%. The pest or weed control at 62 g/ha ([4]; 62 g ai/ha, scale 0 to 100 (0 no effect, 100 complete control), read-out: Plant response rating, Lambsquarters) was 100%, the pest or weed control at 125 g/ha ([5]; 125 g ai/ha, read-out: Plant response rating (scale 0 to 100), Waterhemp) was 100% and the pest or weed control at 16 g/ha ([5]; 16 g ai/ha, scale 0 to 100 (0 no effect, 100 complete control), read-out: Plant response rating, Waterhemp) was 100%. The pest or weed control at 31 g/ha ([5]; 31 g ai/ha, scale 0 to 100 (0 no effect, 100 complete control), read-out: Plant response rating, Waterhemp) was 100%, the pest or weed control at 62 g/ha ([5]; 62 g ai/ha, scale 0 to 100 (0 no effect, 100 complete control), read-out: Plant response rating, Waterhemp) was 100% and the pest or weed control at 125 g/ha ([6]; 125 g ai/ha, read-out: Plant response rating (scale 0 to 100), Morningglory) was 70%. The pest or weed control at 16 g/ha ([6]; 16 g ai/ha, scale 0 to 100 (0 no effect, 100 complete control), read-out: Plant response rating, Morningglory) was 5%, the pest or weed control at 31 g/ha ([6]; 31 g ai/ha, scale 0 to 100 (0 no effect, 100 complete control), read-out: Plant response rating, Morningglory) was 15% and the pest or weed control at 62 g/ha ([6]; 62 g ai/ha, scale 0 to 100 (0 no effect, 100 complete control), read-out: Plant response rating, Morningglory) was 15%. The pest or weed control at 125 g/ha ([7]; 125 g ai/ha, read-out: Plant response rating (scale 0 to 100), Crabgrass, Large) was 100%, the pest or weed control at 16 g/ha ([7]; 16 g ai/ha, scale 0 to 100 (0 no effect, 100 complete control), read-out: Plant response rating, Crabgrass, Large) was 25% and the pest or weed control at 31 g/ha ([7]; 31 g ai/ha, scale 0 to 100 (0 no effect, 100 complete control), read-out: Plant response rating, Crabgrass, Large) was 90%. For the same compound, the pest or weed control at 62 g/ha ([7]; 62 g ai/ha, scale 0 to 100 (0 no effect, 100 complete control), read-out: Plant response rating, Crabgrass, Large) was 85%, the plant injury at 125 g/ha ([8]; 125 g ai/ha, read-out: Plant response rating (scale 0 to 100), Wheat) was 0% and the plant injury at 16 g/ha ([8]; 16 g ai/ha, scale 0 to 100 (0 no effect, 100 complete control), read-out: Plant response rating, Wheat) was 0%. It also gave a plant injury at 31 g/ha ([8]; 31 g ai/ha, scale 0 to 100 (0 no effect, 100 complete control), read-out: Plant response rating, Wheat) of 0%, a plant injury at 62 g/ha ([8]; 62 g ai/ha, scale 0 to 100 (0 no effect, 100 complete control), read-out: Plant response rating, Wheat) of 0% and a pest or weed control at 125 g/ha ([9]; 125 g ai/ha, read-out: Plant response rating (scale 0 to 100), Ragweed) of 50%. The pest or weed control at 16 g/ha ([9]; 16 g ai/ha, scale 0 to 100 (0 no effect, 100 complete control), read-out: Plant response rating, Ragweed) was 80%, the pest or weed control at 31 g/ha ([9]; 31 g ai/ha, scale 0 to 100 (0 no effect, 100 complete control), read-out: Plant response rating, Ragweed) was 60% and the pest or weed control at 62 g/ha ([9]; 62 g ai/ha, scale 0 to 100 (0 no effect, 100 complete control), read-out: Plant response rating, Ragweed) was 70%.

Source: US10131652B2, “Pyrimidinyloxy benzene derivatives as herbicides” (E. I. DU PONT DE NEMOURS AND COMPANY, priority 2014, dated 2018)
